Drawing on patent publication US20170217946A1, “AMINO-SUBSTITUTED ISOXAZOLES” (Bayer Pharma Aktiengesellschaft, priority 2014, published 2017), this text covers IC50 for three compounds.

One assay deals with HeLa cells. Kind of assay: Proliferation assay (crystal violet). The class given is cell-based. As to conditions: Homo sapiens, 96 h, 4 days incubation, read-out: Inhibition of proliferation HeLa IC50. As to the method:
Cultivated tumor cells (cells were ordered from ATCC, except HeLa-MaTu and HeLa-MaTu-ADR, which were ordered from EPO-GmbH, Berlin) were plated at a density of 1000 to 5000 cells/well, depending on the growth rate of the respective cell line, in a 96-well multititer plate in 200 μL of their respective growth medium supplemented 10% fetal calf serum. After 24 hours, the cells of one plate (zero-point plate) were stained with crystal violet (see below), while the medium of the other plates was replaced by fresh culture medium (200 μl), to which the test substances were added in various concentrations (0 μM, as well as in the range of 0.001-10 μM; the final concentration of the solvent dimethyl sulfoxide was 0.5%). The cells were incubated for 4 days in the presence of test substances. Cell proliferation was determined by staining the cells with crystal violet: the cells were fixed by adding 20 μl/measuring point of an 11% glutaric aldehyde solution for 15 minutes at room temperature. After three washing cycles of the fixed cells with water, the plates were dried at room temperature. The cells were stained by adding 100 μl/measuring point of a 0.1% crystal violet solution (pH 3.0). After three washing cycles of the stained cells with water, the plates were dried at room temperature. The dye was dissolved by adding 100 μl/measuring point of a 10% acetic acid solution. Absorption was determined by photometry at a wavelength of 595 nm. The change of cell number, in percent, was calculated by normalization of the measured values to the absorption values of the zero-point plate (=0%) and the absorption of the untreated (0 μm) cells (=100%). The IC50 values were determined by means of a 4 parameter fit.

For assay [1], the system named is spindle assembly checkpoint (phosphorylated histone H3 on serine 10) in HeLa cells. Kind of assay: SAC-Formation - Paclitaxel-Induced Assay. The class given is cell-based. Conditions: Homo sapiens, paclitaxel 0.05 μM, 24 h incubation. The text has this:
The spindle assembly checkpoint assures the proper segregation of chromosomes during mitosis. Upon entry into mitosis, chromosomes begin to condensate which is accompanied by the phosphorylation of histone H3 on serine 10. Dephosphorylation of histone H3 on serine 10 begins in anaphase and ends at early telophase. Accordingly, phosphorylation of histone H3 on serine 10 can be utilized as a marker of cells in mitosis. Nocodazole is a microtubule destabilizing substance. Paclitaxel is a microtubule stabilizing compound. Thus, nocodazole as well as paclitaxel interfere with microtubule dynamics and mobilize the spindle assembly checkpoint. […] The mitotic breakthrough can be detected by the decrease of cells with phosphorylation of histone H3 on serine 10. This decline is used as a marker to determine the capability of compounds of the present invention to induce a mitotic breakthrough. The typical morphological alteration of nuclei with a prematurely completed mitosis after SAC-inhibition can be monitored via image analysis routines supporting those findings.
The nocodazole and paclitaxel variations were used to focus on compounds that are capable of inhibiting a SAC induced by both microtubule destabilization as well as microtubule stabilization. […]
Cultivated cells of the human cervical tumor cell line HeLa (ATCC CCL-2) were plated at a density of 1000 cells/well in a 1536-well microtiter plate in 2 μl PAA Ham's F12 Medium supplemented with 1% (v/v) glutamine, 1% (v/v) penicillin, 1% (v/v) streptomycin and 10% (v/v) fetal calf serum. […] Images were acquired with a PERKIN ELMER OPERA™ High-Content Analysis reader. Images were analyzed with image analysis software MetaXpress™ from Molecular devices utilizing the Mitotic Index application module. In this assay both labels HOECHST 33342 and phosphorylated Histone H3 on serine 10 were measured. […] The raw assay data were further analyzed by four-parametric hill equation using Genedata's Assay Analyzer and Condoseo software.

The structures appear in SMILES notation.

Turning to `Cc1noc(Nc2cnc(C(F)(F)F)cn2)c1C(=O)Nc1ccc(OC2CCN(CCC(F)(F)F)CC2)nc1` [Example 1a, 3-Methyl-5-{[5-(trifluoromethyl)pyrazin-2-yl]amino}-N-(6-{[1-(3,3,3-trifluoropropyl)-piperidin-4-yl]oxy}pyridin-3-yl)-1,2-oxazole-4-carboxamide], the figures for the IC50 (in the assay on HeLa cells; in assay [1]) were 1900 nM and 760 nM, respectively.

As for `Cc1noc(Nc2cnc(C(=O)NC3CCN(CC(F)F)CC3)cn2)c1C(=O)Nc1ccc(F)c(F)c1` [Example 1b, N-[1-(2,2-Difluoroethyl)piperidin-4-yl]-5-({4-[(3,4-difluorophenyl)carbamoyl]-3-methyl-1,2-oxazol-5-yl}amino)pyrazine-2-carboxamide], the IC50 in the assay with HeLa cells came to 3400 nM; in assay [1], 630 nM.

Consider `Cc1noc(Nc2cnc(C(F)(F)F)cn2)c1C(=O)Nc1ccc(F)c(F)c1` [Example 1c, N-(3,4-Difluorophenyl)-3-methyl-5-{[5-(trifluoromethyl)pyrazin-2-yl]amino}-1,2-oxazole-4-carboxamide], for which the IC50 in the assay on HeLa cells came to 940 nM; in assay [1], 180 nM.
